The text below walks through data of patent US9956211B2, “Pharmaceutical compositions comprising a local anaesthetic such as bupivacaine for local administration to the mouth or throat” (MOBERG PHARMA AB, priority 2011, dated 2018).

The conditions of data set [1]: cited from earlier work.
Data set [2] in a line: Study I: single dose kinetics of compressed bupivacaine lozenge. It counts as in vivo, human. As to the method:
Bupivacaine has not been used as local oral administration before.
The purpose of this study is to investigate the pharmacokinetics of bupivacaine after topical oral administration. The plasma concentration of bupivacaine is measured after absorption over an intact oral mucosa after administration of a compressed lozenge containing respectively 5, 10, 25 and 50 mg bupivacaine as a single dose and 25 mg as multiple doses.
(§1) These are prospective, descriptive studies. The subjects were ten healthy young males. Samples of full blood were taken in lithium-heparin pipes for anticoagulant effect. After the blood sample is collected it is centrifuged at 2500 rounds per minute for 15 minutes at 4° C. Approximately 1 ml plasma is taken from the sample and put into vials and right away put into a −80° C. freezer, where it is kept until analysis.
The aim of the study was to investigate the pharmacokinetics of bupivacaine by topical oral administration. The concentration of bupivacaine was measured in the blood after absorption from an intact oral mucosa after administration of a compressed lozenge containing respectively 5, 10 or 25 mg of bupivacaine. On study days 1, 2, 3 and 4 (interspersed with single wash-out days) the subjects were given one 5 mg lozenge, one 10 mg lozenge, one 25 mg lozenge or two 25 mg lozenges, respectively.
Before the study began, the subjects drank 250 ml water to remove any traces of coffee, cola or other potential absorption enhancers. After 10 minutes a compressed lozenge was administered. […] A baseline blood sample was taken, the lozenge was administered and then blood samples were taken at 0 min (i.e. when the lozenge has completely dissolved in the mouth, 15 min, 30 min, 45 min, 60 min, 75 min, 90 min, 105 min, 120 min, 150 min, 180 min, 210 min, 240 min, 270 min, 300 min, 330 min and 360 min.

The nature of data set [3]: Study II: multiple doses kinetics. Particulars: 25 mg lozenge four times a day, 72 hours. In kind it is in vivo, human. As to the method:
as §1
The multiple doses study was conducted over 72 hours consecutively, where the subjects were administrated a lozenge containing 25 mg of bupivacaine four times a day in the awake hours.
The aim of the study was to measure the concentration of bupivacaine in the blood after absorption from an intact oral mucosa after administration of a lozenge containing 25 mg of bupivacaine given four times a day. […] Therefore the lozenges were administered at 8 am, […], 6 pm and 10 pm, to give a total daily dose of 100 mg bupivacaine.
The subjects drank 250 ml water to remove any traces of coffee, cola or other potential absorption enhancers. After 10 minutes a compressed lozenge was administered.

Data set [4] is described as follows: Study VII: single dose kinetics, fasting. In kind it is in vivo, human. Particulars: 25 mg compressed lozenge, fasting vs not fasting. Here is the method: The single dose kinetics was conducted over 10 hours. The subjects had been fasting from 12 pm the night before the study began. The subjects were administrated a compressed lozenge containing 25 mg of bupivacaine. The blood collection began at approximately 7 am.
In our previous results we have seen an extra peak. The aim of this study was to investigate if the extra peak was from gastrointestinal absorption.
Baseline blood sample. Administration of lozenge. Blood sample at the following times: 0 min, 15 min, 30 min, 45 min, 60 min, 75 min, 90 min, 105 min, 120 min, 150 min, 180 min, 210 min, 240 min, 300 min, 360 min, 420 min, 480 min, 540 min and 600 min. (Time 0 minutes is when the lozenge is completely dissolved in the mouth.)

Data set [5] in a line: Pilot study Aarhus: kinetics, non-intact mucosa. Conditions: 25 mg lozenge, three head or neck cancer patients, stage 3 mucositis, non-intact oral mucosa. In kind it is in vivo, human. Here is the method: The study was conducted over 2-3 hours on three patients from Aarhus University hospital. The patients were suffering from head or neck cancer with stage 3 mucositis with a non-intact oral mucosa. The aim of the study was to investigate the pharmacokinetics of bupivacaine by topical oral administration of a 25 mg lozenge. A baseline blood sample was taken, followed by administration of the lozenge, and then blood samples were taken at 0 min (i.e. when the lozenge is completely dissolved in the mouth), 15 min, 30 min, 45 min, 60 min, 75 min, 90 min, 105 min, 120 min, 150 min and 180 min.

Data set [6] can be described thus: Activity after heating during the casting process. It counts as physicochemical. Conditions: heated at up to 180° C. during the casting process.
The conditions of data set [7]: plasma concentration; cited from earlier work.
The conditions of data set [8]: safety pharmacology, single and repeated dose toxicity, reproduction toxicity, mutagenic potential, local toxicity; cited from earlier work.
Where [9] appears, read: standard aqueous medium, pH7.4, 25° C.

Like-named read-outs stand apart in the source and are kept apart here.

For levobupivacaine, the octanol/water partition coefficient in data set [1] (pH 7.4) is listed as 346.

Regarding `CCOC(=O)c1ccc(N)cc1` [benzocaine], the octanol/water partition coefficient in data set [1] (setting [9]) is listed as 81.

Consider `CCCN(CC)C(CC)C(=O)Nc1c(C)cccc1C` (stereo not drawn) [etidocaine], for which the octanol/water partition coefficient in data set [1] (setting [9]) is given as 800.

Take `CCCN1CCCC[C@H]1C(=O)Nc1c(C)cccc1C` [ropivacaine]: the octanol/water partition coefficient in data set [1] (setting [9]) is recorded as 115.

Take `CCCCN1CCCCC1C(=O)Nc1c(C)cccc1C` (stereo not drawn) [bupivacaine, 1-butyl-N-(2,6-dimethylphenyl)piperidine-2-carboxamide]: the discomfort entry in data set [2] (5 mg and 10 mg compressed lozenge) is recorded as “none of them felt any discomfort”. Further, in data set [2] (5 mg and 10 mg compressed lozenge, healthy subjects), the anesthetic effect felt entry is listed as “felt the anesthetic effect”. The “discomfort, especially in the pharynx” value in data set [2] (25 mg compressed lozenge) was “some of the subjects felt discomfort”. Moreover, the discomfort entry in data set [2] (50 mg (two 25 mg lozenges)) was “discomfort was further increased”. Also, the side effects result in data set [2] (5, 10, 25 and 50 mg single doses) is listed as “None of the subjects experienced any side effects”. In data set [2] (maximum dosage 50 mg (two 25 mg compressed lozenges), single dose, intact oral mucosa, healthy subjects), the “maximum bupivacaine plasma concentration” value is on record as “less than 600 ng/ml”. Besides, in data set [3], the “accumulation in the body” value is on record as “not being accumulated in the body” and the peak plasma concentrations result was “lower than the toxic level”. Moreover, the “influence of fasting on plasma level” value in data set [4] was “did not influence the results”. In data set [5], the “maximum plasma concentration of bupivacaine” value is recorded as “below 700 ng/ml”. Also, in data set [6], the activity after heating result is on record as “retains full activity”. Besides, the “toxic level in man” value in data set [7] is 2 to 4 µg/mL. The “risks for humans from preclinical safety data” value in data set [8] was “no special risks for humans”. Besides, the octanol/water partition coefficient in data set [1] (setting [9]) was 346.
